Measurements published in patent publication US9108944B2, “Androgen receptor modulators and uses thereof” (ARAGON PHARMACEUTICALS, INC., priority 2010, dated 2015).

How the values were obtained:
[1] = biological target: T1, AR-VP16 (Homo sapiens, UniProt P10275); assay: AR-VP16 DNA Binding Assay, agonist mode (HepG2 cells); type: cell-based; details: Emax >20x DMSO control = agonist
T1 sequence (P10275 560-920 limits assumed): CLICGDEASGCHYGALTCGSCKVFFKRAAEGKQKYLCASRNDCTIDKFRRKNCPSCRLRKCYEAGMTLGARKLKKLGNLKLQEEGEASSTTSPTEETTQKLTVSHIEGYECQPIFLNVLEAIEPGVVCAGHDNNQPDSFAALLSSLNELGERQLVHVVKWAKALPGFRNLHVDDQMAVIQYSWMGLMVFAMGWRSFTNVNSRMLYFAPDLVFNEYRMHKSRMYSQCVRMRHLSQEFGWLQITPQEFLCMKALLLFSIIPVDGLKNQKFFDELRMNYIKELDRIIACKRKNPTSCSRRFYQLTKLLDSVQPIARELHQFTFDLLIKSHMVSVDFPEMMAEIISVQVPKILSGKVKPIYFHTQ

[2] = biological target: T1, AR-VP16; assay: AR-VP16 DNA Binding Assay, antagonist mode (HepG2 cells, 0.1 nM R1881); type: cell-based
Method in brief: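 Transfected HepG2 cells expressing AR-VP16 received serially diluted compound in charcoal-stripped-serum RPMI the day after transfection, with 0.1 nM R1881 (final) added only for antagonist testing. After 48 h, cells were lysed for measurement.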

SMILES	ARVP16 DNA Binding Assay (Agonist mode): Agonist? [1]	IC50 [2] [µM]
Cc1cc(N2C(=O)C3(CCC3)N(c3ccc(C(=O)Nc4cccc(F)c4)c(F)c3)C2=S)cnc1C#N [Compound 298, 4-(7-(6-Cyano-5-methylpyridin-3-yl)-8-oxo-6-thioxo-5,7-diazaspiro[3.4]octan-5-yl)-2-fluoro-N-(3-fluorophenyl)benzamide]	No (Agonist defined as a compound whose Emax in the ARVP16 DNA Binding Assay (Agonist mode) is >20x DMSO control)	< 1
Cc1cc(N2C(=O)C3(CCC3)N(c3ccc(C(=O)Nc4ccn(C)n4)c(F)c3)C2=S)cnc1C#N [Compound 303, 4-(7-(6-Cyano-5-methylpyridin-3-yl)-8-oxo-6-thioxo-5,7-diazaspiro[3.4]octan-5-yl)-2-fluoro-N-(1-methyl-1H-pyrazol-3-yl)benzamide]	No (Agonist defined as a compound whose Emax in the ARVP16 DNA Binding Assay (Agonist mode) is >20x DMSO control)	> 1
Cc1cc(N2C(=O)C3(CCC3)N(c3ccc(C(=O)Nc4cncc(F)c4)c(F)c3)C2=S)cnc1C#N [Compound 305, 4-(7-(6-Cyano-5-methylpyridin-3-yl)-8-oxo-6-thioxo-5,7-diazaspiro[3.4]octan-5-yl)-2-fluoro-N-(5-fluoropyridin-3-yl)benzamide]	No (Agonist defined as a compound whose Emax in the ARVP16 DNA Binding Assay (Agonist mode) is >20x DMSO control)	< 1
N#Cc1ncc(N2C(=O)C3(CCC3)N(c3ccc(C(=O)NCCCO)c(F)c3)C2=S)cc1C(F)(F)F [Compound 306, 4-(7-(6-cyano-5-(trifluoromethyl)pyridin-3-yl)-8-oxo-6-thioxo-5,7-diazaspiro[3.4]octan-5-yl)-2-fluoro-N-(3-hydroxypropyl)benzamide]	No (Agonist defined as a compound whose Emax in the ARVP16 DNA Binding Assay (Agonist mode) is >20x DMSO control)	< 1
CN(CCCNC(=O)c1ccc(N2C(=S)N(c3cnc(C#N)c(C(F)(F)F)c3)C(=O)C23CCC3)cc1F)C1CCCC1 [Compound 307, 4-(7-(6-Cyano-5-(trifluoromethyl)pyridin-3-yl)-8-oxo-6-thioxo-5,7-diazaspiro[3.4]octan-5-yl)-N-(3-(cyclopentyl(methyl)amino)propyl)-2-fluorobenzamide]	No (Agonist defined as a compound whose Emax in the ARVP16 DNA Binding Assay (Agonist mode) is >20x DMSO control)	< 1
N#Cc1ncc(N2C(=O)C3(CCC3)N(c3ccc(C(=O)NCCCN4CCCC4=O)c(F)c3)C2=S)cc1C(F)(F)F [Compound 308, 4-(7-(6-Cyano-5-(trifluoromethyl)pyridin-3-yl)-8-oxo-6-thioxo-5,7-diazaspiro[3.4]octan-5-yl)-2-fluoro-N-(3-(2-oxopyrrolidin-1-yl)propyl)benzamide]	No (Agonist defined as a compound whose Emax in the ARVP16 DNA Binding Assay (Agonist mode) is >20x DMSO control)	< 1
Cc1cc(N2C(=O)C3(CCC3)N(c3ccc(C(=O)NCC4CCOCC4)c(F)c3)C2=S)cnc1C#N [Compound 311, 4-(7-(6-Cyano-5-methylpyridin-3-yl)-8-oxo-6-thioxo-5,7-diazaspiro[3.4]octan-5-yl)-2-fluoro-N-((tetrahydro-2H-pyran-4-yl)methyl)benzamide]	No (Agonist defined as a compound whose Emax in the ARVP16 DNA Binding Assay (Agonist mode) is >20x DMSO control)	> 1
N#Cc1ncc(N2C(=O)C3(CCC3)N(c3ccc(C(=O)NCCCN4CCC(F)(F)C4)c(F)c3)C2=S)cc1C(F)(F)F [Compound 313, 4-(7-(6-Cyano-5-(trifluoromethyl)pyridin-3-yl)-8-oxo-6-thioxo-5,7-diazaspiro[3.4]octan-5-yl)-N-(3-(3,3-difluoropyrrolidin-1-yl)propyl)-2-fluorobenzamide]	No (Agonist defined as a compound whose Emax in the ARVP16 DNA Binding Assay (Agonist mode) is >20x DMSO control)	< 1
